Test results taken from US10940216B2, “Cyclic peptides with enhanced nerve-binding selectively, nanoparticles bound with said cyclic peptides, and use of same for real-time in vivo nerve tissue imaging” (Memorial Sloan Kettering Cancer Center, priority 2014, dated 2021).
Ends that are not written are not given here.

Key:
[1] = Characterization of NBP-Cy5 conjugates and linear NBP-C′ dots by fluorescence correlation spectroscopy (FCS); format: physicochemical
Description: Similarly, cyclic peptide(s) can be bound to nanoparticles for improved quantum enhancement and FCS brightness over the non-bound cyclic peptide.
Measurements were determined from fluorescence correlation spectroscopy (FCS).
The linear nerve binding polypeptide (NBP) NP41 was incorporated onto C′ dots using a PEG linker moiety.

sciatic nerve = assay: In vivo optical imaging of sciatic nerve and adjacent muscle after iv injection of peptide-dye conjugates; conditions: nude mouse; for fluorescence signal at 30 min as percentage of post-injection/initial signal: 150 nmole iv
Description: FIGS. 13A-13E show in vivo time-dependent uptake from sciatic nerve and muscle post-iv injection of 17 AA cyclic peptide-dye conjugates using optical imaging. 17 AA cyclic peptide-dye conjugates (Cy5 labeled) were injected intravenously (400 nmole) into the tail veins of nude mouse prior to surgical exposure and imaging of sciatic nerves and adjacent muscle using a Zeiss Lumar stereomicroscope (0.8× objective) with fluorescence imaging capabilities. Pre- and serial post injection (p.i.) images (bright field, fluorescent) were acquired at 8 times points from 15 min to 240 min p.i. Bars indicate mean+/−standard deviation. N=5 per group. Each replicate is from one biological experiment, quantified with five independent fields of view. Region of interest (ROI) analysis was performed over nerve and muscle regions to assess time-dependent signal changes. FIGS. 13A-13E show the absolute and relative fluorescence signal (e.g., percentage of the initial fluorescence signal acquired at 15 min p.i.) of nerves (FIGS. 13A and […]) and adjacent muscle (FIGS. 13B and 13D), respectively.
FIGS. 14A and 14B show in vivo time-dependent uptake from sciatic nerve and muscle post-iv injection of 17 AA linear peptide-dye conjugates using optical imaging. 17 AA linear peptide-dye conjugates (Cy5 labeled) were injected intravenously (150 nmole) into the tail veins of nude mouse prior to surgical exposure and imaging of sciatic nerves and adjacent muscle using a Zeiss Lumar stereomicroscope (0.8× objective) with fluorescence imaging capabilities. Pre- and serial post injection (p.i.) images (bright field, fluorescent) were acquired at 6 times points (15 min-150 min) p.i. Bars indicate mean+/−standard deviation. N=5 per group.
FIGS. 16A-16E show in vivo time-dependent uptake from sciatic nerve and muscle post-iv injection of 17 AA cyclic peptide-dye conjugates using optical imaging. 17 AA cyclic peptide-dye conjugates (Cy5 labeled) were injected intravenously (150 nmole) into the tail veins of nude mouse prior to surgical exposure and imaging of sciatic nerves and adjacent muscle using a Zeiss Lumar stereomicroscope (0.8× objective) with fluorescence imaging capabilities. Pre- and serial post injection (p.i.) images (bright field, fluorescent) were acquired at 6 time points (15 min-150 min) p.i. Bars indicate mean+/−standard deviation. N=5 per group. Each replicate is from one biological experiment, quantified with five independent fields of view. Region of interest (ROI) analysis was performed over nerve and muscle regions to assess time-dependent signal changes. FIGS. 16A-16D show the absolute and relative fluorescence signal (percentage of the initial fluorescence signal acquired at 15 min p.i.) of nerves (FIGS. 16A and 16C) and adjacent muscle (FIGS. 16B and 16D), respectively.

Compound	# of Cy5 per particles [1]	Hydrodynamic Diameter [1]	PCS Brightness [1]	Quantum Enhancement [1]	# of NBP per particles [1]	fluorescence signal at 30 min as percentage of post-injection/initial signal (sciatic nerve; listed as 17 AA linear peptide-dye conjugates)	fluorescence signal at 30 min as percentage of post-injection/initial signal (sciatic nerve; listed as linear peptide)	duration of detectable signal after administration (in words) (sciatic nerve; iv)	nerve-to-muscle or contrast ratios over time (in words) (sciatic nerve; iv, listed as linear peptide)	nerve-to-muscle or contrast ratios over time (in words) (sciatic nerve; iv, listed as linear peptide-dye conjugate)
CCN1/C(=C/C=C/C=C/C2=[N+](CCCCCC(=O)O)c3ccc(S(=O)(=O)O)cc3C2(C)C)C(C)(C)c2cc(S(=O)(=O)[O-])ccc21 [Cy5]	1	1.4 nm	9.2 kHz	1	–	–	–	–	–	–
Ac-SHSNTQTLAKAPEHTGC (also: Cy5 label, site not given here) [LinearNBP-Cy5]	1	2.4 nm	8.9 kHz	0.9	1	about 15%	10%	barely perceptible thereafter	does not demonstrate as high ratios	roughly equivalent over the first 30 min
